Patent publication US10933061B2 (Shepherd Therapeutics, Inc., priority 2017, dated 2021)
“And” between values parts separate entries of the source, which are not always exact repeats. Equal values may be shown once.

Key:
[1] = tested on: Kato-III gastric carcinoma cells; assay: Chou-Talalay combination assay, Cell Titer Glo; assay type: cell-based; conditions: Kato-III; combination with pyrvinium pamoate; 72 hour incubation
Procedure: (§1) Following a 72 hour incubation, cell viability was determined using Cell Titer Glo.

[2] = tested on: Rh41 rhabdomyosarcoma cells; assay: Chou-Talalay combination assay, Cell Titer Glo; assay type: cell-based; conditions: combination with pyrvinium pamoate, 72 hour incubation
Procedure: as §1

[3] = tested on: GIST-1 gastrointestinal stromal tumor cells; assay: Chou-Talalay combination assay, Cell Titer Glo; assay type: cell-based; conditions: combination with pyrvinium pamoate, 72 hour incubation
Procedure: as §1

[4] = tested on: TOV-112D ovarian carcinoma cells; assay: Chou-Talalay combination assay, Cell Titer Glo; assay type: cell-based; conditions: 72 hour incubation
Procedure: as §1

[5] = tested on: TC-32 Ewing's sarcoma cells; assay: Chou-Talalay combination assay, Cell Titer Glo; assay type: cell-based; conditions: combination with pyrvinium pamoate, 72 hour incubation
Procedure: as §1

[6] = tested on: carcinoid tumor cell line STC-1; assay: Chou-Talalay combination assay, Cell Titer Glo; assay type: cell-based; conditions: combination with pyrvinium pamoate, 72 hour incubation
Procedure: as §1

JU-77 mesothelioma cells = assay: Chou-Talalay combination assay, Cell Titer Glo; assay type: cell-based; conditions: combination with pyrvinium pamoate, 72 hour incubation
Procedure: as §1

[7] = tested on: UM-Chor1 chordoma cell line; assay: Chou-Talalay combination assay, Cell Titer Glo; assay type: cell-based; conditions: combination with pyrvinium pamoate, 72 hour incubation
Procedure: as §1

[8] = tested on: SW13 adrenocortical carcinoma cells; assay: Chou-Talalay combination assay, Cell Titer Glo; assay type: cell-based; conditions: 72 hour incubation
Procedure: as §1

[9] = tested on: SK-UT-1 leiomyosarcoma cells; assay: Chou-Talalay combination assay, Cell Titer Glo; assay type: cell-based; conditions: combination with pyrvinium pamoate, 72 hour incubation
Procedure: as §1

[10] = tested on: SKOV-3 ovarian carcinoma cells; assay: Chou-Talalay combination assay, Cell Titer Glo; assay type: cell-based; conditions: combination with pyrvinium pamoate, 72 hour incubation
Procedure: as §1

[11] = tested on: CCC-5 cholangiocarcinoma cells; assay: Chou-Talalay combination assay, Cell Titer Glo; assay type: cell-based; conditions: 72 hour incubation; for CI range: combination with pyrvinium pamoate
Procedure: as §1

[12] = tested on: COV362 ovarian carcinoma cells; assay: Chou-Talalay combination assay, Cell Titer Glo; assay type: cell-based; conditions: combination with pyrvinium pamoate, 72 hour incubation
Procedure: as §1

[13] = tested on: SK-N-AS neuroblastoma cells; assay: Chou-Talalay combination assay, Cell Titer Glo; assay type: cell-based; conditions: SK-N-AS; combination with pyrvinium pamoate; 72 hour incubation
Procedure: as §1

[14] = tested on: SNU-16 gastric carcinoma cells; assay: Chou-Talalay combination assay, Cell Titer Glo; assay type: cell-based; conditions: combination with pyrvinium pamoate, 72 hour incubation
Procedure: as §1

[15] = tested on: NCI-H295R adrenocortical carcinoma cells; assay: Chou-Talalay combination assay, Cell Titer Glo; assay type: cell-based; conditions: combination with pyrvinium pamoate, 72 hour incubation
Procedure: as §1

[16] = tested on: SK-UT-1B leiomyosarcoma cells; assay: Chou-Talalay combination assay, Cell Titer Glo; assay type: cell-based; conditions: combination with pyrvinium pamoate, 72 hour incubation
Procedure: as §1

LO-68 mesothelioma cells = assay: Chou-Talalay combination assay, Cell Titer Glo; assay type: cell-based; conditions: combination with pyrvinium pamoate, 72 hour incubation
Procedure: as §1

[17] = tested on: TC-71 Ewing's sarcoma cells; assay: Chou-Talalay combination assay, Cell Titer Glo; assay type: cell-based; conditions: 72 hour incubation
Procedure: as §1

[18] = tested on: TFK-1 cholangiocarcinoma cells; assay: Chou-Talalay combination assay, Cell Titer Glo; assay type: cell-based; conditions: 72 hour incubation; for CI range: combination with pyrvinium pamoate
Procedure: as §1

[19] = tested on: CHP-212 neuroblastoma cells; assay: Chou-Talalay combination assay, Cell Titer Glo; assay type: cell-based; conditions: 72 hour incubation; for CI range: combination with pyrvinium pamoate
Procedure: as §1

[20] = tested on: BxPC-3 pancreatic carcinoma cells; assay: Chou-Talalay combination assay, Cell Titer Glo; conditions: combination with pyrvinium pamoate, 72 hour incubation
Procedure: as §1

[21] = tested on: Rh30 rhabdomyosarcoma cells; assay: Chou-Talalay combination assay, Cell Titer Glo; assay type: cell-based; conditions: combination with pyrvinium pamoate, 72 hour incubation
Procedure: as §1

[22] = tested on: IMR-32 neuroblastoma cells; assay: Chou-Talalay combination assay, Cell Titer Glo; assay type: cell-based; conditions: combination with pyrvinium pamoate, 72 hour incubation
Procedure: as §1

[23] = tested on: Hs766t pancreatic carcinoma cells; assay: Chou-Talalay combination assay, Cell Titer Glo; assay type: cell-based; conditions: 72 hour incubation
Procedure: as §1

[24] = tested on: SW-1271 small cell lung carcinoma cells; assay: Chou-Talalay combination assay, Cell Titer Glo; assay type: cell-based; conditions: combination with pyrvinium pamoate, 72 hour incubation
Procedure: as §1

[25] = tested on: DMS-114 small cell lung carcinoma cells; assay: Chou-Talalay combination assay, Cell Titer Glo; assay type: cell-based; conditions: combination with pyrvinium pamoate, 72 hour incubation
Procedure: as §1

[26] = tested on: SK-LMS-1 leiomyosarcoma cells; assay: Chou-Talalay combination assay, Cell Titer Glo; assay type: cell-based; conditions: combination with pyrvinium pamoate, 72 hour incubation
Procedure: as §1

[27] = tested on: PC12 pheochromocytoma/paraganglioma cells; conditions: combination with pyrvinium pamoate, 72 hour incubation
Procedure: as §1

[28] = combination with pyrvinium pamoate

Row | SMILES | CI range [2] | CI range [3] | CI range [5] | CI range [6] | CI range [7] | CI range [11] | CI range [12] | CI range [15] | CI range [19] | CI range [20] | CI range [21] | CI range [18] | CI range [26] | CI range [27] | also measured
1 | COc1cccc2c1C(=O)c1c(O)c3c(c(O)c1C2=O)C[C@@](O)(C(=O)CO)C[C@@H]3O[C@H]1C[C@H](N)[C@H](O)[C@H](C)O1 [Doxorubicin] | 0.145-0.834 | 0.169-0.883 | 0.424-0.872 | 0.807-0.890 | 0.423-0.875 | 0.341-0.805 | 0.021-0.895 | 0.185-0.872 | 0.696-0.812 | – | – | – | – | – | CI range [1]: Yes- (0.021-0.584); Synergy with pyrvinium pamoate [4]: No; CI range (JU-77 mesothelioma cells): 0.444-0.889; Synergy with pyrvinium pamoate [8]: No; CI range [9]: (0.556-0.858); CI range [10]: (0.017-0.870); CI range [13]: Yes- (0.082-0.879); CI range [14]: 0.614-0.878; CI range [16]: 0.352-0.739; CI range (LO-68 mesothelioma cells): 0.008-0.642; Synergy with pyrvinium pamoate [17]: No; Synergy with pyrvinium pamoate [18]: No
2 | CCN1CCN(Cc2ccc(Nc3ncc(F)c(-c4cc(F)c5nc(C)n(C(C)C)c5c4)n3)nc2)CC1 [Abemaciclib] | – | 0.249-0.699 | – | – | – | 0.628-0.841 | 0.144-0.714 | – | 0.076-0.772 | 0.417-0.895 | 0.148-0.886 | 0.522-0.884 | 0.350-0.808 | – | CI range [22]: (0.485-0.860); CI range [23, 28]: 0.587-0.863 and 0.304-0.879; CI range [24]: 0.183-0.889; CI range [25]: 0.327-0.876
3 | CC[C@]1(O)C[C@H]2CN(CCc3c([nH]c4ccccc34)[C@@](C(=O)OC)(c3cc4c(cc3OC)N(C=O)[C@H]3[C@@](O)(C(=O)OC)[C@H](OC(C)=O)[C@]5(CC)C=CCN6CC[C@]43[C@@H]65)C2)C1 [Vincristine] | 0.284-0.876 | 0.231-0.756 and 0.150-0.772 | 0.659-0.869 | 0.036-0.854 | 0.249-0.560 | – | 0.432-0.825 | 0.752-0.827 | – | 0.347-0.869 | 0.477-0.883 | 0.453-0.827 | 0.163-0.831 | 0.614-0.841 | CI range [4, 28]: 0.477-0.858; CI range [8, 28]: 0.499-0.875; Synergy with pyrvinium pamoate [23]: No; Synergy with pyrvinium pamoate [11]: No; CI range [17, 28]: 0.251-0.898; Synergy with pyrvinium pamoate [19]: No
4 | CN(C)/N=N/c1[nH]cnc1C(N)=O [Dacarbazine] | – | – | – | – | – | – | – | – | – | – | – | – | – | 0.550-0.818 | –
